≈ marks a conversion by molar mass, not a printed value. Where two headings read alike, the source gives them in different places.
Columns and labels:
[1] = tested on: histone H2B-HaloTag fusion; experiment: Halo-protein specificity (Specificity Factor), single-molecule imaging in U2OS cells; assay type: cell-based; details: ratio of slope (spots vs dye concentration, 1-200 nM, 45 minutes) relative to PA-JF549
Procedure: The following day the cells were incubated with PA-JF549 or Examples 1-4 at a range of concentrations between 200 nM and 1 nM for 45 minutes. […] Samples were imaged on a Nikon Ti2 microscope with fiber-optic coupled illumination source. […] Images were collected every 10 msec for 5 seconds per field of view and pulses of ascending intensity 405 nm light (between 0 and 12 mW at the coverslip) were used to photoactivate dye molecules.
For each dye compound, a linear regression was used to determine the relationship between the concentration of dye compound and the number of fluorescence spots detected on the microscope, where in WT cells the ideal dye would have no correlation between compound concentration and number of slots measured. The Specificity Factor was calculated as the ratio of the slope of the compound in question relative to the slope calculated for PA-JF549 and is shown in Table 3 below.

[2] = Kinetic solubility in PBS at 7.4; assay type: physicochemical; details: PBS buffer, aqueous buffer, kinetic from dmso stock, pH 7.4, 500 μM final concentration, 1.5 hours at room temperature, average of three runs, read-out: Ksol
Procedure: 190 μL of buffer solution (PBS, pH 7.4) was added to wells on a 96-well Millipore Solubility filter plate. Then 10 μL of test compound in DMSO (10 mM) were added to give final concentration of 500 μM.
The filter plate was shaken for 1.5 hours at room temperature in the dark and samples were filtered via a vacuum system into a fresh 96-well plate. Samples were diluted to 500 μM (highest concentration) in DMSO and further diluted (1:10) to provide three-point calibration curve. Absorbance was measured using HPLC/UV analysis at 220 nm, 254 nm, and 280 nm.

[3] = target: T1, Estrogen Receptor-HaloTag (ER-Halo) fusion (Rhodococcus rhodochrous, UniProt P0A3G2, A155T/A167V/A172T/A224E/C128F/C176G/D78G/E160K/E257K/H272N/K175M/K195N/L47V/L88M/N227D/P291S/S58T/T264A/Y273L/Y87F); assay type: cell-based; details: tracks in WT U2OS cells, ratio with PA-JF549 in the numerator, 100 nM, 1 hr
T1 construct: expressed in transfected cells; host or cells: U2OS
T1 sequence (P03372 whole entry, the tested form may be a part): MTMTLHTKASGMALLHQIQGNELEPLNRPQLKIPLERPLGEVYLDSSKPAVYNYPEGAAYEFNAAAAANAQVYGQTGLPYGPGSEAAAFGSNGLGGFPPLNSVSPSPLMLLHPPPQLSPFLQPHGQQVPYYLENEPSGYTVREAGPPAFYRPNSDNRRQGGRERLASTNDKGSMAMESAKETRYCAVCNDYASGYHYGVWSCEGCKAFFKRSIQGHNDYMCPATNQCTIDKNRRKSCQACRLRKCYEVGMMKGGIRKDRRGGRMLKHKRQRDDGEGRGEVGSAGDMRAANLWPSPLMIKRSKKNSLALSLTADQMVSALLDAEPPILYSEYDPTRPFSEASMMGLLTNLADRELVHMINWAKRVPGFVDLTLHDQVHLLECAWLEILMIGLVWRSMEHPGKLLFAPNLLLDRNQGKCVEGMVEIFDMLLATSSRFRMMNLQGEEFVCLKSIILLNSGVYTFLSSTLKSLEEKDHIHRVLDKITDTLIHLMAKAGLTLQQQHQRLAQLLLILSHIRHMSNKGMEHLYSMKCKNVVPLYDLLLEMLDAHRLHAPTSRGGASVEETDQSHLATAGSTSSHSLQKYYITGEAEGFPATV
T1 sequence (P0A3G2 other isoform, or with tags, fused parts or gaps with the stated changes): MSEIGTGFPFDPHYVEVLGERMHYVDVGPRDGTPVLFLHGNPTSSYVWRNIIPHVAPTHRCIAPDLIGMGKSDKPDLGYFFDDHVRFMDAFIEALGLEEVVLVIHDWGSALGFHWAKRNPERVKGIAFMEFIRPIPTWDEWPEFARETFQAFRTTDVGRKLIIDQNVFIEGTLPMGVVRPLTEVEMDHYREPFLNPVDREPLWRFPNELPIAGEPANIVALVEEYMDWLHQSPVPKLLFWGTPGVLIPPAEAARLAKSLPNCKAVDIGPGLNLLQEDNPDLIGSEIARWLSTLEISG
Procedure: Using the methods described in Tables 4a and 4b above, labelling specificity of the compound of Examples 1-24 was measured and compared to PA-JF549. U2OS cells wild type or expressing ER-HaloTag fusion were incubated with PA-JF549 or Examples 1-24 for 1 hr. […] Labeling specificity, as measured by the fold reduction in nonspecific labeling of WT cells, was calculated by number of tracks measured in WT cells for Examples 1-24 compared to the number of tracks in WT cells for PA-JF549, expressed as the ratio with PA-JF549 in the numerator.

Row | Compound | Specificity Factor [1] | solubility kinetic at 1.5 h [2] [µM] | Fold reduction in nonspecific labeling ([3]; Table 4a) | Fold reduction in nonspecific labeling ([3]; Table 4b)
1 | [N-]=[N+]=C1C(=O)c2ccc(C(=O)NCCOCCOCCCCCCCl)cc2C12c1ccc(N3CC(C(=O)O)C3)cc1Oc1cc(N3CC(C(=O)O)C3)ccc12 [Example 2, 1,1′-(6-((2-(2-((6-chlorohexyl)oxy)ethoxy)ethyl)carbamoyl)-2-diazo-3-oxo-2,3-dihydrospiro[indene-1,9′-xanthene]-3′,6′-diyl)bis(azetidine-3-carboxylic acid)] | <1 | 481 (≈ 371 µg/mL) | >10 | >10
2 | CN(C)C(=O)C1CN(c2ccc3c(c2)Oc2cc(N4CC(C(=O)N(C)C)C4)ccc2C32C(=[N+]=[N-])C(=O)c3ccc(C(=O)NCCOCCOCCCCCCCl)cc32)C1 [Example 4, 1,1′-(6-((2-(2-((6-chlorohexyl)oxy)ethoxy)ethyl)carbamoyl)-2-diazo-3-oxo-2,3-dihydrospiro[indene-1,9′-xanthene]-3′,6′-diyl)bis(N,N-dimethylazetidine-3-carboxamide)] | 23.8 | 3.69 (≈ 3.05 µg/mL) | >10 | >10
3 | COC[C@H]1CCN1c1ccc2c(c1)Oc1cc(N3CC[C@@H]3COC)ccc1C21C(=[N+]=[N-])C(=O)c2ccc(C(=O)NCCOCCOCCCCCCCl)cc21 [Example 3, N-(2-(2-((6-chlorohexyl)oxy)ethoxy)ethyl)-2-diazo-3′,6′-bis((R)-2-(methoxymethyl)azetidin-1-yl)-3-oxo-2,3-dihydrospiro[indene-1,9′-xanthene]-6-carboxamide] | 2.07 | 39.5 (≈ 30.5 µg/mL) | 1-5 | 1-5
4 | COC(=O)C1CN(c2ccc3c(c2)Oc2cc(N4CC(C(=O)OC)C4)ccc2C32C(=[N+]=[N-])C(=O)c3ccc(C(=O)NCCOCCOCCCCCCCl)cc32)C1 [Example 1, dimethyl 1,1′-(6-((2-(2-((6-chlorohexyl)oxy)ethoxy)ethyl)carbamoyl)-2-diazo-3-oxo-2,3-dihydrospiro[indene-1,9′-xanthene]-3′,6′-diyl)bis(azetidine-3-carboxylate)] | 2.66 | 58.4 (≈ 46.7 µg/mL) | >10 | >10

Reference: patent publication US12681018B2, “Photoactive fluorescent compounds and use thereof for labeling of proteins” (EIKON THERAPEUTICS, INC., priority 2021, dated 2026)
